Reference: article PMC5159881 (Nature Communications, 2016)
“And” between values parts separate entries of the source, which are not always exact repeats. Equal entries are not always repeated.

What was measured:
[1] = system: AR protein; assay: Western blotting of AR protein level in PCa cell lines; assay type: cell-based, human; conditions: LNCaP, 22RV1, LNCaP-MDV3100-R and VCaP cell lines (CEL: LNCaP and 22RV1, 12 h)
From the text: Scale bars, 10 μm. […] Scale bars, 20 μm.

[2] = system: LNCaP-MDV3100-R cells; assay: SRB cell growth assay, LNCaP-MDV3100-R; assay type: cell-based, human; conditions: 72 h, 20 μM
Protocol: Cell growth was determined by SRB assay.
the SRB assay (n = 5). The half maximal inhibitory concentration (IC50) was calculated using GraphPad Prism 5.0 (GraphPad, San Diego, CA).

[3] = system: 22RV1 xenografts; assay: 22RV1 subcutaneous xenograft in BALB/c-nude mice; assay type: in vivo, mouse; conditions: 10 mg kg^−1 per day BIC or 2 mg kg^−1 per day AIL, i.p.
[4] = system: LNCaP xenografts; assay: LNCaP subcutaneous xenograft in BALB/c-nude mice; assay type: in vivo, mouse; conditions: 10 mg kg^−1 per day BIC or 2 mg kg^−1 per day AIL, i.p.
Protocol: (§1) (a–c) 22RV1 (a), LNCaP (b) and VCaP (c) cells suspended in 0.1 ml PBS (22RV1) or matrigel (LNCaP, VCaP) were injected into the right flank of BALB/c-nude mice. Androgen containing blocks were subcutaneously inserted into each mouse in the LNCaP and VCaP xenograft models. […] The control group was injected with DMSO. Tumour volume and the mouse body weight were measured twice per week.
(§2) BALB/c-nude mice (6–8-weekold, male) were purchased from the Sino-British Sippr/BK Lab Animal Co., Ltd (Shanghai, China) and maintained under pathogen-free conditions. The animal use protocol was approved by the Institutional Animal Care and Use Committee of East China Normal University. The 22RV1, LNCaP and VCaP xenograft tumour models were developed by injecting 3 × 10^6 22RV1 cells or 5 × 10^6 LNCaP or VCaP cells in suspension into the right flank of a BALB/c-nude mouse; cells were suspended in 100 μl PBS or 50% matrigel (LNCaP and VCaP), respectively. Specifically for LNCaP and VCaP cells, continuous release testosterone pellets (15 mg testosterone per pellet, Sigma-Aldrich) were implanted subcutaneously to stimulate the growth of LNCaP and VCaP xenografts. […] The tumour volume and mouse body weight were measured twice a week. The tumour volume was calculated using the following equation: tumour volume (V)=length × width × width × 0.52. […]
(§3) Tumor volume and the mouse body weight were measured once a week. […]

[5] = system: LNCaP cells; assay: SRB cell growth assay, LNCaP; conditions: androgen-starved LNCaP, 0.1 nM R1881, 96 h; 10 μM BIC, 10 μM MDV, 0.1-0.4 μM AIL
[6] = system: c4-2b cells; assay: SRB cell growth assay, c4-2b; conditions: R1881, 96 h, 10 μM
[7] = system: 22RV1 cells; assay: SRB cell growth assay, 22RV1; conditions: 22RV1, R1881, 96 h, 10 μM
[8] = in vivo; conditions: rat; for half-life: plasma
Protocol: Pharmacokinetic studies in vivo[37] and CYP-associated metabolic studies in vitro[56] were performed using the method reported previously in our laboratory. […] The incubation system, sample preparation and chromatography conditions are as described previously.
A simple and sensitive method for the determination of AIL in plasma was developed, using high-performance liquid chromatography-tandem mass spectrometry (HPLC-MS/MS). Brusatol was used as an internal standard. […] The details of this HPLC-MS/MS method and sample preparation are described in our previous study.
The statistical analysis was performed by SPSS 22.0 software. The differences between control group and experimental groups were determined by one-way analysis of variance. Since treatment and time course was investigated, two-way analysis of variance followed by post hoc test was also applied. Data were expressed as mean and s.d., and P<0.05 was considered significant. Pharmacokinetic parameters were calculated by WinNonlin software version 5.2.1 (Pharsight Corporation, Mountain View, USA) based on noncompartmental analysis. […]
Pharmacokinetic study of ailanthone in rats
Sprague-Dawley rats (purchased from Shanghai SLAC laboratory animal Co. Ltd., Shanghai, China) were fasted for 12 h with free access to water prior to the pharmacokinetic study. The rats were randomized into two groups for oral administration (5mg/kg) and intravenous injection (1mg/kg). Blood samples were collected from the orbital plexus into heparinized centrifuge tubes at fifteen different time points between 5 min to 36 h for the oral administration group and nine time points between 5 min to 6 h for the intravenous one. The pharmacokinetic parameters were calculated by WinNonlin software version 5.2.1 based on noncompartmental analysis. Oral bioavailability was calculated as F (%) = AUC0-∞(p.o.) / AUC0-∞(i.v.) × Dose (i.v.) / Dose (p.o.). […]
Supplementary Figure 9C). […]

[9] = system: HSP90 and HSP70; assay: Western blotting of HSP90 and HSP70 protein levels in LNCaP and 22RV1 cells; assay type: cell-based, human; conditions: 12 h
[10] = system: VCaP xenografts; assay: VCaP subcutaneous xenograft in BALB/c-nude mice; assay type: in vivo, mouse; conditions: 2 mg/kg AIL or 10 mg/kg MDV, i.p.
Protocol: as §1, §2, §3

[11] = system: 22RV1-luc orthotopic xenografts; assay: Orthotopic castration-resistant prostate cancer model (22RV1-luc, castrated mice); assay type: in vivo, mouse; conditions: i.p. once per day, 28 days, AIL 2 mg kg^−1 (95% CI 70–95%), MDV 10 mg kg^−1 (95% CI 0–36%)
Protocol: (d) Male BALB/c-nude mice were anaesthetized, and the dorsolateral prostate was injected with 22RV1-luc cells in matrigel. […] Tumours were imaged every week to determine local tumour growth and evidence of tumour cell dissemination. Representative images of three mice per group were illustrated (n=5). (e) After 28 days, mice were killed and local tumours and viscera of the mice were imaged to determine tumour growth and evidence of tumour cell dissemination.
For orthotopic castration-resistant prostate cancer xenografts, male BALB/c-nude mice (8–9 weeks of age) were anaesthetized using 150 mg kg^−1 2, 2, 2-tribromethanol plus 350 mg kg^−1 tert-amyl alcohol and then 5 × 10^5 22RV1-luc cells suspended in 30 μl 50% matrigel were surgically injected into the dorsolateral prostate lobes. One week after injection, the tumour-bearing mice were castrated and randomly assigned to three groups. […] Prostate tumour growth and local metastasis were monitored weekly using the IVIS Imaging System (Xenogen Corporation, Alameda, CA). Images and measurements of bioluminescent signals were acquired and analysed using Living Image and Xenogen software[52].

[12] = system: PSA mRNA; assay: Quantitative-PCR of PSA mRNA in 22RV1 cells; conditions: 12 h
Protocol: Total RNA was extracted using TRIzol (Takara, Japan) according to the manufacturer's instructions. One microgram of total RNA was used for complementary DNA synthesis using a cDNA reverse transcription kit (Takara, Japan). Real-time PCR was performed in triplicate using gene-specific primers on a Stratagene Mx3005P PCR system (Agilent Technologies) machine. The mRNA expression levels were normalized to β-actin expression or GAPDH.

[13] = Sprague-Dawley, in vivo, iv, 1 mg/kg
[14] = Sprague-Dawley, in vivo, po, 5 mg/kg

Question: For `CC1=C(O)C(=O)C=C2C1=CC=C1[C@@]2(C)CC[C@@]2(C)[C@@H]3C[C@](C)(C(=O)O)CC[C@]3(C)CC[C@]12C` [CEL, Celastrol], which AR protein level [1] is on record?
Answer: downregulated the protein level of AR

Question: With `CC(O)(CS(=O)(=O)c1ccc(F)cc1)C(=O)Nc1ccc(C#N)c(C(F)(F)F)c1` (centres unmarked) [BIC, bicalutamide] as the compound, how does the “cell growth (SRB)” value [2] read?
Answer: totally resistant

Question: What about the tumour growth [3] of the same compound?
Answer: resistant

Question: What about the tumour volume [4] of the same compound?
Answer: significantly reduced the tumour volume

Question: And the “cell growth (SRB)” value [5]?
Answer: effectively blocked cell growth

Question: What about the “cell growth (SRB)” value [6] of the same compound?
Answer: could not significantly inhibit cell growth

Question: What about the “cell growth (SRB)” value [7] of the same compound?
Answer: could not significantly inhibit cell growth

Question: For `C=C1[C@@H](O)[C@]2(O)OC[C@]34[C@H]2[C@@]2(C)[C@H](O)C(=O)C=C(C)[C@@H]2C[C@H]3OC(=O)C[C@@H]14` [AIL, Ailanthone], which bioavailability ([8]; Sprague-Dawley, in vivo) is on record?
Answer: 25.7%

Question: What about the AUC(0-inf) [8, 13] of the same compound?
Answer: 1030 ng·h/mL

Question: What about the AUC(0-t) [8, 13] of the same compound?
Answer: 965 ng·h/mL

Question: What about the C0 [8, 13] of the same compound?
Answer: 1650 ng/mL and 4.39 µM

Question: What about the AUC(0-inf) [8, 14] of the same compound?
Answer: 1320 ng·h/mL

Question: What about the AUC(0-t) [8, 14] of the same compound?
Answer: 1120 ng·h/mL

Question: What about the Cmax [8, 14] of the same compound?
Answer: 87 ng/mL and 231 nM

Question: And the Tmax [8, 14]?
Answer: 0.388 h

Question: And the half-life ([8]; iv, i.v. 1 mg kg^−1, n=6, mean±s.d.)?
Answer: 1.89 ± 0.66 h

Question: What about the half-life ([8]; po, p.o. 5 mg kg^−1, n=6, mean±s.d.) of the same compound?
Answer: 12.2 ± 2.6 h

Question: Which “HSP90 and HSP70 protein levels” value [9] does the source give for `C=CCNC1=C2C[C@@H](C)C[C@H](OC)[C@H](O)[C@@H](C)/C=C(\C)[C@H](OC(N)=O)[C@@H](OC)/C=C\C=C(/C)C(=O)NC(=CC1=O)C2=O` [17-AAG] here?
Answer: induced upregulation

Question: With `CNC(=O)c1ccc(N2C(=S)N(c3ccc(C#N)c(C(F)(F)F)c3)C(=O)C2(C)C)cc1F` [MDV, MDV3100] as the compound, how does the “cell growth (SRB)” value [2] read?
Answer: totally resistant

Question: And the response of xenografts [10]?
Answer: still responded

Question: And the “reduction of tumour volume” value [11]?
Answer: 15%

Question: And the “cell growth (SRB)” value [5]?
Answer: effectively blocked cell growth

Question: What about the “cell growth (SRB)” value [6] of the same compound?
Answer: could not significantly inhibit cell growth

Question: What about the “cell growth (SRB)” value [7] of the same compound?
Answer: could not significantly inhibit cell growth

Question: And the “PSA mRNA level in the presence of R1881” value ([12]; 22RV1, 10 nM R1881, 10 μM MDV or 0.2 μM AIL)?
Answer: decreased

Question: And the “PSA mRNA level in the absence of R1881” value ([12]; 22RV1, no R1881, 10 μM MDV or 0.2 μM AIL)?
Answer: no effect
